Results on eleven compounds are retold here after PubChem BioAssay (NCI).

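These data come from cells grown in 96-well plates and exposed to compound for 48 hours at five concentrations. TGI: total growth inhibition.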

Test systems include DLD-1 colon; DMS 273 small cell lung; HOP-18 NSCLC; KM20L2 colon; LXFL 529 NSCLC; RXF-631 renal; SNB-78 CNS; XF 498 CNS; MDA-N; P388 leukemia; P388/ADR leukemia; SN12K1 renal.
Experiment in all cases: NCI tumour cell line growth inhibition, 48 h

With `CC(=O)Oc1ccc2c(c1)C(=O)c1nc(C)c(C)nc1C2=O`, the TGI with DLD-1 colon was above 100 µM; in the experiment with DMS 273 small cell lung, above 100 µM; with HOP-18 NSCLC, above 100 µM; in the experiment with KM20L2 colon, above 100 µM; in the experiment with LXFL 529 NSCLC, above 100 µM; in the experiment on RXF-631 renal it was above 91.9 µM. Further, the TGI in the experiment on SNB-78 CNS and in the experiment on XF 498 CNS was above 100 µM throughout.

On to `CNC(=O)CN(CC(=O)O)C(=O)NC`, for which the TGI with DLD-1 colon, in the experiment on DMS 273 small cell lung, in the experiment on LXFL 529 NSCLC, with RXF-631 renal, in the experiment on SNB-78 CNS and in the experiment on XF 498 CNS was above 100 µM in each case.

Turning to `C=C1C[C@@H]2C[C@@H](C)CC(O)[C@]2(CCCN)C1O` (some centres undefined), the TGI with DLD-1 colon, in the experiment with DMS 273 small cell lung, in the experiment with HOP-18 NSCLC, in the experiment on KM20L2 colon, in the experiment with LXFL 529 NSCLC and in the experiment on RXF-631 renal was above 100 µM in each case. Besides, the TGI with SNB-78 CNS and with XF 498 CNS was above 100 µM in each case.

Consider `O=C[C@@H](CO)O[C@H](C=O)n1cnc2c(=O)[nH]cnc21`, for which the TGI in the experiment with DLD-1 colon worked out at 395 µM; in the experiment on DMS 273 small cell lung, 1570 µM; with HOP-18 NSCLC, 1670 µM; in the experiment with KM20L2 colon, 2130 µM; in the experiment on MDA-N it was 1610 µM; in the experiment on P388 leukemia, 374 µM. In addition, the TGI in the experiment on P388/ADR leukemia was 257 µM; in the experiment on SN12K1 renal, 1570 µM; in the experiment on SNB-78 CNS, 2170 µM; with XF 498 CNS it was 1690 µM.

`CO[C@@]1(c2ccccc2)O[C@H]2OCCC2[C@H]1c1ccc(Cl)cc1` (some centres undefined): the TGI was above 100 µM with DLD-1 colon; above 100 µM in the experiment on DMS 273 small cell lung; 99 µM with HOP-18 NSCLC; above 100 µM in the experiment on KM20L2 colon; above 100 µM in the experiment with LXFL 529 NSCLC; above 100 µM in the experiment with RXF-631 renal. The figures for the TGI in the experiment on SNB-78 CNS and with XF 498 CNS were above 100 µM and 69.3 µM, respectively.

`CCCCN(CCCC)CC(C(C)=O)C(c1ccccc1)c1c(O)c2ccccc2oc1=O` (centres undefined): the TGI in the experiment on DLD-1 colon, in the experiment on DMS 273 small cell lung, in the experiment with HOP-18 NSCLC, with KM20L2 colon, with LXFL 529 NSCLC and with RXF-631 renal was above 100 µM each time. Besides, the TGI in the experiment with SNB-78 CNS and in the experiment with XF 498 CNS was above 100 µM throughout.

As for `N#Cc1cccc(N2C(=O)C3C4C=CC(C3C2=O)C2C(=O)N(c3cccc(C#N)c3)C(=O)C42)c1` (centres undefined), the TGI in the experiment with DLD-1 colon is above 46.4 µM; in the experiment on DMS 273 small cell lung, above 31.6 µM; in the experiment with HOP-18 NSCLC, above 100 µM; with KM20L2 colon, above 100 µM; with LXFL 529 NSCLC it was above 46.4 µM; with MDA-N it was above 100 µM. The TGI with RXF-631 renal came to 42.9 µM; with SNB-78 CNS it was 33.7 µM; in the experiment on XF 498 CNS it was 36.2 µM.

`O=C1NC2C(O)CCCCC2C12CCCCC2` (centres undefined): the TGI with DLD-1 colon, in the experiment with DMS 273 small cell lung, in the experiment with HOP-18 NSCLC, in the experiment with LXFL 529 NSCLC, with RXF-631 renal and with SNB-78 CNS was above 100 µM each time. The TGI in the experiment on XF 498 CNS is above 100 µM.

Take `CCC1=C(CC2NCCc3ccccc32)CC2c3cc(OC)c(OC)cc3CCN2C1` (centres undefined): the TGI in the experiment with DLD-1 colon was above 100 µM; in the experiment with DMS 273 small cell lung, 3.02 µM; in the experiment on KM20L2 colon it was 26.5 µM; in the experiment with LXFL 529 NSCLC, above 100 µM; in the experiment with MDA-N, 8.25 µM; in the experiment with RXF-631 renal, 4.44 µM. For the same compound, the TGI with SNB-78 CNS was 6.77 µM; in the experiment with XF 498 CNS, 13 µM.

Regarding `c1ccc(OC2=NC3=S(S2)SC(Oc2ccccc2)=N3)cc1`, the TGI is 35 µM in the experiment with DLD-1 colon; 85.6 µM in the experiment on DMS 273 small cell lung; 45 µM in the experiment on KM20L2 colon; 52.1 µM in the experiment with RXF-631 renal; 48.1 µM with SNB-78 CNS; 32 µM in the experiment on XF 498 CNS.

As for `COC(=O)N/N=C(\C)CC(=O)Nc1ccc(Cl)cc1`, the TGI in the experiment with DLD-1 colon, in the experiment with KM20L2 colon, in the experiment with LXFL 529 NSCLC, in the experiment on RXF-631 renal, in the experiment on SNB-78 CNS and in the experiment on XF 498 CNS was above 100 µM each time.
